system: HCV genotype 1b replicon in Huh 7 cells; assay: HCV replicon assay (1b_Huh-Luc/Neo-ET cell line, luciferase readout); type: cell-based; details: Hepatitis C virus; Table 1; genotype 1b replicon, Huh 7 cells, 72 h, luciferase; read-out: Inhibition of HCV genotype 1b
Procedure, shortened: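 Replicon level was read as luciferase signal after 72 h compound exposure, triplicate wells, starting the day after cells were plated. Cell line: 1b_Huh-Luc/Neo-ET. Values normalised to control as percent, and EC50 fitted with a variable-slope sigmoid; determinations repeated.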

`COC(=O)N[C@H](C(=O)N1CCC[C@H]1c1ncc(-c2ccc3cc(-c4ccc5nc([C@@H]6CCCN6C(=O)[C@@H](NC(=O)OC)C(C)C)[nH]c5c4)ccc3n2)[nH]1)C(C)C` [compound 209] and `COC(=O)N[C@H](C(=O)N1CCC[C@H]1c1nc2ccc(-c3ccc4nc(-c5cnc([C@@H]6CCCN6C(=O)[C@H](NC(=O)OC)c6ccccc6)[nH]5)ccc4c3)cc2[nH]1)C(C)C` [compound 210] cannot be ordered by EC50: less than 1 nM for the first, less than 1 nM for the second.

`COC(=O)N[C@H](C(=O)N1CCC[C@H]1c1nc2ccc(-c3ccc4nc(-c5cnc([C@@H]6CCCN6C(=O)[C@@H](NC(=O)OC)C6CCOCC6)[nH]5)ccc4c3)cc2[nH]1)C(C)C` [compound 211] and `COC(=O)N[C@H](C(=O)N1CCC[C@H]1c1nc2ccc(-c3cc4ccc(-c5cnc([C@@H]6CCCN6C(=O)[C@@H](NC(=O)OC)C6CCOCC6)[nH]5)cc4cn3)cc2[nH]1)C(C)C` [compound 216] cannot be ordered by EC50: less than 1 nM for the first, less than 1 nM for the second.

`COC(=O)N[C@H](C(=O)N1CCC[C@H]1c1nc2ccc(-c3ccc4cc(-c5cnc([C@@H]6CCCN6C(=O)[C@H](NC(=O)OC)c6ccccc6)[nH]5)ccc4c3)cc2[nH]1)C1CCOCC1` [compound 212] and `COC(=O)N[C@H](C(=O)N1CCC[C@H]1c1ncc(-c2ccc3cc(-c4ccc5nc([C@@H]6CCCN6C(=O)[C@@H](NC(=O)OC)C6CC6)[nH]c5c4)ccc3c2)[nH]1)C1CC1` [compound 228] cannot be ordered by EC50: less than 1 nM for the first, less than 1 nM for the second.

`COC(=O)N[C@H](C(=O)N1CCC[C@H]1c1ncc(-c2ccc3cc(-c4ccc5nc([C@@H]6CCCN6C(=O)[C@@H](c6ccccc6)N6CCOCC6)[nH]c5c4)ccc3c2)[nH]1)C(C)C` [compound 213] and `COC(=O)N[C@H](C(=O)N1CCOC[C@H]1c1ncc(-c2ccc3cc(-c4ccc5nc([C@@H]6CCCN6C(=O)[C@@H](NC(=O)OC)C6CCOCC6)[nH]c5c4)ccc3c2)[nH]1)C(C)C` [compound 221] cannot be ordered by EC50: less than 1 nM for the first, less than 1 nM for the second.

First: COC(=O)N[C@H](C(=O)N1CCC[C@H]1c1ncc(-c2ccc3c(-c4ccc5[nH]c([C@@H]6CCCN6C(=O)[C@@H](NC(=O)OC)C(C)C)nc5c4)cccc3c2)[nH]1)C(C)C [compound 214]
Second: COC(=O)N[C@H](C(=O)N1CCOC[C@H]1c1ncc(-c2ccc3cc(-c4ccc5nc([C@@H]6CCCN6C(=O)[C@@H](NC(=O)OC)C(C)C)[nH]c5c4)ccc3c2)[nH]1)C(C)C [compound 220]
The EC50 of the first is higher: 10 to 999 nM for the first, less than 1 nM for the second. The second is the more potent here.

`COC(=O)N[C@H](C(=O)N1CCC[C@H]1c1nc2ccc(-c3cccc4c(-c5cnc([C@@H]6CCCN6C(=O)[C@@H](NC(=O)OC)C6CCOCC6)[nH]5)cccc34)cc2[nH]1)C(C)C` [compound 215] and `COC(=O)N[C@H](C(=O)N1CCC[C@H]1c1ncc(-c2ccc3cc(-c4ccc5nc([C@@H]6CCCN6C(=O)[C@@H](NC(=O)OC)C6CCOCC6)[nH]c5c4)ncc3c2)[nH]1)C(C)C` [compound 219] cannot be ordered by EC50: less than 1 nM for the first, less than 1 nM for the second.

Compared with `COC(=O)N[C@H](C(=O)N1CCC[C@H]1c1ncc(-c2ccc3cc(-c4ccc5nc([C@@H]6CCCN6C(=O)[C@@H](NC(=O)OC)C6CCOCC6)[nH]c5c4)ncc3c2)[nH]1)C1CCOCC1` [compound 217], `COC(=O)N[C@H](C(=O)N1CCC[C@H]1c1ncc(-c2ccc3cc(-c4ccc5nc([C@@H]6CCCN6C(=O)[C@@H](NC(=O)OC)C6CCCC6)[nH]c5c4)ccc3c2)[nH]1)C1CCCC1` [compound 218] is lower in EC50: 1 to 9.9 nM for the first, less than 1 nM for the second. The second is the more potent here.

`COC(=O)N[C@H](C(=O)N1CCC[C@H]1c1ncc(-c2ccc3cc(-c4ccc5nc([C@@H]6COCCN6C(=O)[C@@H](NC(=O)OC)C(C)C)[nH]c5c4)ccc3c2)[nH]1)C(C)C` [compound 222] and `COC(=O)N[C@H](C(=O)N1CCOC[C@H]1c1ncc(-c2ccc3cc(-c4ccc5nc([C@@H]6COCCN6C(=O)[C@@H](NC(=O)OC)C(C)C)[nH]c5c4)ccc3c2)[nH]1)C(C)C` [compound 224] cannot be ordered by EC50: less than 1 nM for the first, less than 1 nM for the second.

`COC(=O)N[C@H](C(=O)N1CCOC[C@H]1c1nc2ccc(-c3ccc4cc(-c5cnc([C@@H]6CCCN6C(=O)[C@@H](NC(=O)OC)C6CCOCC6)[nH]5)ccc4c3)cc2[nH]1)C(C)C` [compound 223] and `CC[C@@H](C)[C@H](NC(=O)OC)C(=O)N1CCC[C@H]1c1ncc(-c2ccc3cc(-c4ccc5nc([C@@H]6CCCN6C(=O)[C@@H](NC(=O)OC)[C@H](C)CC)[nH]c5c4)ccc3c2)[nH]1` [compound 225] cannot be ordered by EC50: less than 1 nM for the first, less than 1 nM for the second.

`CC[C@H](NC(=O)OC)C(=O)N1CCC[C@H]1c1ncc(-c2ccc3cc(-c4ccc5nc([C@@H]6CCCN6C(=O)[C@H](CC)NC(=O)OC)[nH]c5c4)ccc3c2)[nH]1` [compound 226] and `CCC(CC)[C@H](NC(=O)OC)C(=O)N1CCC[C@H]1c1ncc(-c2ccc3cc(-c4ccc5nc([C@@H]6CCCN6C(=O)[C@@H](NC(=O)OC)C(CC)CC)[nH]c5c4)ccc3c2)[nH]1` [compound 227] cannot be ordered by EC50: less than 1 nM for the first, less than 1 nM for the second.

`COC(=O)N[C@H](C(=O)N1CCC[C@H]1c1ncc(-c2ccc(-c3nc4ccc(-c5cnc([C@@H]6CCCN6C(=O)[C@@H](NC(=O)OC)C(C)C)[nH]5)cc4s3)cc2)[nH]1)C(C)C` [compound 229] and `COC(=O)N[C@H](C(=O)N1CCC[C@H]1c1ncc(-c2ccc(-c3nc4ccc(-c5cnc([C@@H]6CCCN6C(=O)[C@@H](NC(=O)OC)C(C)C)[nH]5)cc4o3)cc2)[nH]1)C(C)C` [compound 234] cannot be ordered by EC50: less than 1 nM for the first, less than 1 nM for the second.

`COC(=O)N[C@@H](C(=O)N1CCC[C@H]1c1ncc(-c2ccc(-c3nc4ccc(-c5cnc([C@@H]6CCCN6C(=O)[C@H](NC(=O)OC)c6ccccc6)[nH]5)cc4s3)cc2)[nH]1)c1ccccc1` [compound 230] and `COC(=O)N[C@@H](C(=O)N1CCC[C@H]1c1ncc(-c2ccc(-c3nc4ccc(-c5cnc([C@@H]6CCCN6C(=O)[C@H](NC(=O)OC)c6ccccc6)[nH]5)cc4o3)cc2)[nH]1)c1ccccc1` [compound 235] cannot be ordered by EC50: less than 1 nM for the first, less than 1 nM for the second.

`COC(=O)N[C@H](C(=O)N1CCC[C@H]1c1ncc(-c2ccc(-c3nc4ccc(-c5cnc([C@@H]6CCCN6C(=O)[C@@H](NC(=O)OC)C(C)C)[nH]5)cc4n3C)cc2)[nH]1)C(C)C` [compound 231] and `COC(=O)N[C@H](C(=O)N1CCC[C@H]1c1ncc(-c2ccc(-c3nc4cc(-c5cnc([C@@H]6CCCN6C(=O)[C@@H](NC(=O)OC)C(C)C)[nH]5)ccc4n3C)cc2)[nH]1)C(C)C` [compound 232] cannot be ordered by EC50: less than 1 nM for the first, less than 1 nM for the second.

`COC(=O)N[C@@H](C(=O)N1CCC[C@H]1c1ncc(-c2ccc(-c3nc4cc(-c5cnc([C@@H]6CCCN6C(=O)[C@H](NC(=O)OC)c6ccccc6)[nH]5)ccc4n3C)cc2)[nH]1)c1ccccc1` [compound 233] and `COC(=O)N[C@@H](C(=O)N1CCC[C@H]1c1ncc(-c2ccc(-c3nc4cc(-c5cnc([C@@H]6CCCN6C(=O)[C@H](NC(=O)OC)c6ccccc6)[nH]5)ccc4o3)cc2)[nH]1)c1ccccc1` [compound 237] cannot be ordered by EC50: less than 1 nM for the first, less than 1 nM for the second.

`COC(=O)N[C@H](C(=O)N1CCC[C@H]1c1ncc(-c2ccc(-c3nc4cc(-c5cnc([C@@H]6CCCN6C(=O)[C@@H](NC(=O)OC)C(C)C)[nH]5)ccc4o3)cc2)[nH]1)C(C)C` [compound 236] and `COC(=O)N[C@H](C(=O)N1CCC[C@H]1c1ncc(-c2ccc(-c3nc4cc(-c5cnc([C@@H]6CCCN6C(=O)[C@@H](NC(=O)OC)[C@@H](C)OC)[nH]5)ccc4o3)cc2)[nH]1)[C@@H](C)OC` [compound 238] cannot be ordered by EC50: less than 1 nM for the first, less than 1 nM for the second.

`COC(=O)N[C@H](C(=O)N1CCC[C@H]1c1ncc(-c2ccc(-c3nc4cc(-c5cnc([C@@H]6CCCN6C(=O)[C@@H](NC(=O)OC)C6CC6)[nH]5)ccc4o3)cc2)[nH]1)C1CC1` [compound 239] was tested, and the EC50 was less than 1 nM.
